19 compounds from patent US9371295B2, “Compounds for use in the treatment of disorders that are ameliorated by inhibition of HDAC” (IRBM—Science Park S.p.A., priority 2012, dated 2016) can be followed below.

Each structure is given as a SMILES string.

For experiment [1], the system named is human γ-globin promoter (EGFP reporter) in K562 cells. Kind of experiment: HbF activation assay on K562 (EGFP/RFP reporter model system for screening of inducers of fetal hemoglobin). The class given is cell-based. The following applies: 60 hours. An excerpt: In order to test several compounds, a model system was produced based on previous findings present in the literature. The K562 erythroid-like cell lines, isolated and characterized by Lozzio & Lozzio (Blood, 45(3), pp 321-334) from a patient with chronic myelogenous leukemia in blast crisis, have been extensively employed as a useful in vitro model to study the molecular mechanism(s) regulating the expression of embryonic and fetal human globin genes, as well as for screening of new differentiation-inducing compounds. A stable cell line where reporter genes encoding green EGFP and far-red fluorescent protein red-FP are placed under the control of the human γ-globin or β-globin promoters respectively was used (see Vadolas et al, Hum. Mol. Genet. 2004, 13, 2, 223-233 for details). The modified 3-cluster also contains the upstream regulatory region called LCR. This cell line grows in suspension at 37° C. and 5% CO2 in humidified atmosphere in the following medium: DMEM, 10% foetal bovine serum, glutamine and antibiotics (penicillin and streptomycin);
The assay procedures is as follows: • Single concentration compounds or serially diluted samples are transferred to an empty assay plates by a spotter (ATS-100, EDC Biosystems, USA) in order to have a final concentration of DMSO of 0.25% in 50 μL of cell culture. Source plats contains compounds dissolved in 100% DMSO • Black, transparent bottom, 384 wells, tissue culture treated plates are used as assay plates. • Assay plates containing spotted compounds are filled with a suspension of cell in the described assay medium. The final cell concentration is of 1000 cells per well. • Cells are incubated in humidified atmosphere, 37° C.-5% CO2, for 60 hours • Cell nuclei are stained by adding 10 ul (6 μM; 1 μM final) Hoechst 33342 (Life Technologies, USA) • The cell associated intensity is read by a plate based cytometer (ACUMEN explorer, TTP Labtech, UK) • The nuclei count is used to assess the cell proliferation/death and to normalize the total EGFP/RFP intensity. HbF Activation Assay in Human Cell Line K562
The compounds of the invention were tested in the HbF activation assay on K562, as model system for screening of potential inducers of fetal hemoglobin.

The target of experiment [2] is T1, HDAC1 (Homo sapiens, UniProt Q13547).
T1 construct: made in house
Nature of the experiment: HDAC1 assay (Fluor-de-Lys fluorescent deacetylase assay). The class given is biochemical. The following applies: read-out: hHDAC IC50. Here is the method:
The HDAC1 assay is used to quantify the histone deacetylase (HDAC) activity. The assay is performed in 384 well microtiter plates by pre-incubating serial dilutions of the compounds with a fixed concentration of HeLa nuclear extract or purified HDAC1 and then adding an acetylated lysine-containing substrate/developer that fluoresces upon deacetylation.
Reagents of the HDAC Fluorescent Activity Assay are purchased from BioMol Research Laboratories (Plymouth Meeting, Pa.) and feature the Fluor-de-Lys™ Substrate/Developer System.
TSA Stock: TSA is provided as a 10 mM stock solution in 100% dimethylsulfoxide (DMSO). […] The final concentration in the assay is 20 uM.
3 uM [final] TSA to this solution increases its ability to stop the reaction.
HDAC1 Working Solution: The HDAC1 enzyme is diluted in assay buffer prior to each use from a fresh aliquot of enzyme. The final concentration in the assay is 1-2 nM.
Compounds: Test compounds are directly transferred from a 100% DMSO solution into assay plates by spotting nanoliters of solutions by an acoustic dispenser (ATS-100, EDC biosystems, US).
HeLa cells transiently transfected with pCDNA3-HDAC1-FLAG are grown to 80% confluence on 10 cm culture dishes in DMEM, 10% Fetal bovine serum supplemented with antibiotics and glutamine. Cells are washed with 10 ml cold PBS and scraped into 2 ml of PBS. Cells are centrifuged for 5 minutes at 800×g at 4° C., washed with 30 ml PBS and resuspended in 10 ml PBS, counted, re-centrifuged and frozen at −80° C.
The frozen cell pellet is re-suspended in 1 ml of hypotonic lysis buffer (LB: 20 mM Hepes pH7.9, 0.25 mM EDTA, 10% glycerol) containing COMPLETE protease inhibitor and incubated on ice for 15 minutes, followed by homogenization on a 2-ml DounceB homogenizer (25 strokes). 150 mM KCl and 0.5% NP-40 are added to the homogenate and the solution is sonicated twice for 30 seconds (output5/6, duty cycle 90) and incubated for 1 hour at 4° C. After a 30 minutes centrifugation at 12000 rpm and 4° C. the supernatant (soluble extract) is collected and protein concentration is determined using the BIORAD assay.
Anti-FLAG M2 affinity resin (Sigma) is washed three times with TBS and twice with LB. 10 μl of the LB-washed resin/mg of protein (2-3 ug of Flagged-HDAC1) are added to the soluble extract (1 mL) and incubated overnight at 4° C. with gentle mixing. The resin is then collected by centrifugation, washed once with LB, twice with LB+0.1% NP40 and twice with elution buffer (50 mM Hepes pH 7.4, 5% glycerol, 100 mM KCl, 0.01% Triton X-100).
The concentration of purified HDAC is determined by Western blot analysis.

The subject of experiment [3] is HDAC in Hela cells. Kind of experiment: HDAC Hela Cell Based assay.

T1 sequence (Q13547 whole entry): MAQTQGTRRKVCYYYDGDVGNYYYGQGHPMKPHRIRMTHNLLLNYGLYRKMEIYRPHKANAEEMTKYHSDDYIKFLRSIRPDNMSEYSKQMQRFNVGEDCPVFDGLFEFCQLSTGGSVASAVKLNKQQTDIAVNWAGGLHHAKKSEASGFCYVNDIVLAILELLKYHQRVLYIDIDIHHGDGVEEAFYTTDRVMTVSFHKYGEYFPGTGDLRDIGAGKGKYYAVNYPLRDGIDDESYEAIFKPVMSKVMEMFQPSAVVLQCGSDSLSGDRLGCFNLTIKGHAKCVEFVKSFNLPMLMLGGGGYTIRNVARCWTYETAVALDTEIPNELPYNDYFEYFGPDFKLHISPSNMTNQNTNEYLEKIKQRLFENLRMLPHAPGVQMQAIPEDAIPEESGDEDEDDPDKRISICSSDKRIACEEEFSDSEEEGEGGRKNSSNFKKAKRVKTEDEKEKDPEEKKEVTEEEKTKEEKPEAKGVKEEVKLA

Regarding `CCC(=O)CCCCC[C@H](NC(=O)Cc1c(C)[nH]c2ccc(OC)cc12)c1ncc(-c2cc3ccccc3nc2OC)o1` [Compound 1, (S)-2-(5-methoxy-2-methyl-1H-indol-3-yl)-N-(1-(5-(2-methoxyquinolin-3-yl)oxazol-2-yl)-7-oxononyl)acetamide], in experiment [1], the half-maximal effective concentration (EC50) – broadly, the midpoint of the concentration-response curve – was over 1000 nM. Further, the IC50 (in general, the concentration at which inhibition is half-maximal) was under 100 nM in experiment [2] and 100 to 1000 nM in experiment [3].

`CCC(=O)CCCCC[C@H](NC(=O)C1CCN(C)CC1)c1ncc(-c2ccccc2)o1` [Compound 3, (S)-1-methyl-N-(7-oxo-1-(5-phenyloxazol-2-yl)nonyl)piperidine-4-carboxamide] had an EC50 in experiment [1] of over 1000 nM. Moreover, the IC50 in experiment [2] was under 100 nM; in experiment [3], over 1000 nM.

Compound `CCC(=O)CCCCC[C@H](NC(=O)Cc1c(C)[nH]c2ccc(OC)cc12)c1ncc(-c2ccccc2)o1` [Compound 4, (S)-2-(5-methoxy-2-methyl-1H-indol-3-yl)-N-(7-oxo-1-(5-phenyloxazol-2-yl)nonyl)acetamide] had an EC50 in experiment [1] of over 1000 nM. Besides, the 50% inhibitory concentration (IC50) in experiment [2] is under 100 nM; in experiment [3], over 1000 nM.

Consider `CCC(=O)CCCCC[C@H](NC(=O)C1CCN(C)CC1)c1ncc(-c2cccc3c2OCCO3)o1` [Compound 5], for which the EC50 in experiment [1] is over 1000 nM. The results for the 50% inhibitory concentration (IC50) in experiment [2] and in experiment [3] were under 100 nM and over 1000 nM, respectively.

In experiment [1], `CCC(=O)CCCCC[C@H](NC(=O)c1cncs1)c1ncc(-c2ccccc2)o1` [Compound 6, (S)-N-(7-oxo-1-(5-phenyloxazol-2-yl)nonyl)thiazole-5-carboxamide] had an EC50 of over 1000 nM. Moreover, the IC50 in experiment [2] was under 100 nM; in experiment [3], over 1000 nM.

`CCC(=O)CCCCC[C@H](NC(=O)CCN(C)C)c1ncc(-c2ccccc2)o1` [Compound 7, (S)-3-(dimethylamino)-N-(7-oxo-1-(5-phenyloxazol-2-yl)nonyl)propanamide]: in experiment [1], the EC50 was over 1000 nM. Further, the IC50 in experiment [2] was under 100 nM; in experiment [3], over 1000 nM.

The compound `CCC(=O)CCCCC[C@H](NC(=O)C1CCN(C)C1)c1ncc(-c2ccccc2)o1` (stereo partly drawn) [Compound 8, 1-methyl-N-((S)-7-oxo-1-(5-phenyloxazol-2-yl)nonyl)pyrrolidine-3-carboxamide] registered an EC50 in experiment [1] of over 1000 nM. Besides, the results for the IC50 in experiment [2] and in experiment [3] were under 100 nM and over 1000 nM, respectively.

On to `CCC(=O)CCCCC[C@H](NC(=O)C(C)(C)N(C)C)c1ncc(-c2ccccc2)o1` [Compound 9, (S)-2-(dimethylamino)-2-methyl-N-(7-oxo-1-(5-phenyloxazol-2-yl)nonyl)propanamide], for which the concentration giving a half-maximal response (EC50) in experiment [1] was over 1000 nM. The 50% inhibitory concentration (IC50) in experiment [2] is under 100 nM; in experiment [3] it was over 1000 nM.

Turning to `CCC(=O)CCCCC[C@H](NC(=O)[C@@H]1CSC(=O)N1)c1ncc(-c2ccccc2)o1` [Compound 13, (R)-2-oxo-N-((S)-7-oxo-1-(5-phenyloxazol-2-yl)nonyl)thiazolidine-4-carboxamide], the 50% effective concentration (EC50) in experiment [1] was over 1000 nM. Also, the IC50 is under 100 nM in experiment [2] and over 1000 nM in experiment [3].

`CCC(=O)CCCCC[C@H](NC(=O)c1ccnc(Cl)c1)c1ncc(-c2ccccc2)o1` [Compound 14, (S)-2-chloro-N-(7-oxo-1-(5-phenyloxazol-2-yl)nonyl)isonicotinamide]: the half-maximal effective concentration (EC50) in experiment [1] is over 1000 nM. For the same compound, the IC50 was 100 to 1000 nM in experiment [2] and over 1000 nM in experiment [3].

As for `CCC(=O)CCCCC[C@H](NC(=O)CN1CCN(C)CC1)c1ncc(-c2ccccc2)o1` [Compound 15, (S)-2-(4-methylpiperazin-1-yl)-N-(7-oxo-1-(5-phenyloxazol-2-yl)nonyl)acetamide], in experiment [1], the half-maximal effective concentration (EC50) is over 1000 nM. In addition, the IC50 was 100 to 1000 nM in experiment [2] and over 1000 nM in experiment [3].

As to `CCC(=O)CCCCC[C@H](NC(=O)Cn1c(C)nc2ccccc21)c1ncc(-c2ccccc2)o1` [Compound 18, (S)-2-(2-methyl-1H-benzo[d]imidazol-1-yl)-N-(7-oxo-1-(5-phenyloxazol-2-yl)nonyl)acetamide], in experiment [1], the 50% effective concentration (EC50) is over 1000 nM. Further, the IC50 was 100 to 1000 nM in experiment [2] and over 1000 nM in experiment [3].

`CCC(=O)CCCCC[C@H](NC(=O)C1CCCCCN1C)c1ncc(-c2ccccc2)o1` (stereo partly drawn) [Compound 21, 1-methyl-N-((S)-7-oxo-1-(5-phenyloxazol-2-yl)nonyl)azepane-2-carboxamide] displayed an EC50 in experiment [1] of over 1000 nM. Besides, the 50% inhibitory concentration (IC50) in experiment [2] was 100 to 1000 nM; in experiment [3] it was over 1000 nM.

In the case of `CCC(=O)CCCCC[C@H](NC(=O)CCC1CCCN(C)C1)c1ncc(-c2ccccc2)o1` (stereo partly drawn) [Compound 25, 3-(1-methylpiperidin-3-yl)-N-((S)-7-oxo-1-(5-phenyloxazol-2-yl)nonyl)propanamide], in experiment [1], the EC50 was over 1000 nM. Moreover, the results for the half-maximal inhibitory concentration (IC50) in experiment [2] and in experiment [3] were 100 to 1000 nM and over 1000 nM, respectively.

Compound `CCC(=O)CCCCC[C@H](NC(=O)CCn1c(CC)nc2ccccc21)c1ncc(-c2ccccc2)o1` [Compound 26, (S)-3-(2-ethyl-1H-benzo[d]imidazol-1-yl)-N-(7-oxo-1-(5-phenyloxazol-2-yl)nonyl)propanamide] yielded an EC50 in experiment [1] of over 1000 nM. Further, the concentration for half-maximal inhibition (IC50) in experiment [2] was 100 to 1000 nM; in experiment [3], over 1000 nM.

As for `CCC(=O)CCCCC[C@H](NC(=O)CCn1c(CC)nc2ccccc21)c1ncc(-c2cc3ccccc3nc2OC)o1` [Compound 29, (S)-3-(2-ethyl-1H-benzo[d]imidazol-1-yl)-N-(1-(5-(2-methoxyquinolin-3-yl)oxazol-2-yl)-7-oxononyl)propanamide], in experiment [1], the EC50 was 100 to 1000 nM. Besides, the IC50 in experiment [2] and in experiment [3] was under 100 nM in each case.

With `CCC(=O)CCCCC[C@H](NC(=O)C1CN(C)C1)c1ncc(-c2ccccc2)o1` [Compound 32, (S)-1-methyl-N-(7-oxo-1-(5-phenyloxazol-2-yl)nonyl)azetidine-3-carboxamide], in experiment [1], the EC50 is over 1000 nM. For the same compound, the half-inhibitory concentration (IC50) in experiment [2] is under 100 nM; in experiment [3] it was over 1000 nM.

In the case of `CCC(=O)CCCCC[C@H](NC(=O)C1CCN(C)C1)c1ncc(-c2cc3ccccc3nc2OC)o1` (stereo partly drawn) [Compound 34, N-((S)-1-(5-(2-methoxyquinolin-3-yl)oxazol-2-yl)-7-oxononyl)-1-methylpyrrolidine-3-carboxamide], the EC50 in experiment [1] was 100 to 1000 nM. Besides, the IC50 in experiment [2] is under 100 nM; in experiment [3], 100 to 1000 nM.

For the compound `CCC(=O)CCCCC[C@H](NC(=O)c1cncs1)c1nnc(-c2cc3ccccc3nc2OC)o1` [Compound 49, (S)-N-(1-(5-(2-methoxyquinolin-3-yl)-1,3,4-oxadiazol-2-yl)-7-oxononyl)thiazole-5-carboxamide], in experiment [1], the concentration for a half-maximal effect (EC50) is over 1000 nM. Moreover, the IC50 in experiment [3] lay within 100 to 1000 nM.
